The text below walks through data of patent publication US10676507B2, “Peptide and composition containing the same for anti-inflammation, anti-fibrosis, wound healing, and anticancer treatment” (GemVax & KAEL CO., LTD., priority 2015, dated 2020).

For one experiment, the system named is TGF-β. Put plainly: Western blotting of TGF-β signaling inhibition (pSmad2/3, Smad2/3) in HepG2 cell line. In kind it is cell-based, human. The note with it: 10 μM peptide. Here is the method:
To identify an inhibitory effect of TGF-β, considered as the main cause of fibrosis, of the novel peptides Pep-WH-1 to Pep-WH-12, an experiment for confirming a TGF-β signaling inhibitory action in a HepG2 cell line was carried out as follows.
Reagents and materials used in the present experiment are as follows. Powder-type novel peptides were dissolved in 0.2 μm filtered sterile water, and then stored in the form of aliquots at −70° C., and, when in use, the stored peptides were thawed. A HepG2 cell line (ATCC HB-8065; American Type Culture Collection) was used, and recombinant human TGF-β was dissolved in 4 mM HCl to prepare a 10 μg/mL stock. SB431542 (Sigma) as a positive control was used after being prepared into 10 mM stock.
2×10^6 HepG2 cells (ATCC HB-8065) were seeded in a 60 mm petri dish, and then cultured in a CO2 incubator for 16 hours. Subsequently, the medium was replaced by a serum-free medium (SFM) and further cultured for 24 hours. Thereafter, the medium was replaced with 10 ng/mL of TGF-β1, and the HepG2 cells were treated with each of the novel peptides at each concentration (1 μM and 10 μM) and then cultured for 72 hours. Groups treated with the respective novel peptides were further cultured in a CO2 incubator at 37° C. for 1 hour.
To measure anti-fibrotic activities of the novel peptides, an experiment for measuring a degree of TGF-β signaling inhibition was carried out by western blotting, and a detailed description of the experimental method is as follows.
Cells treated with each peptide were washed twice with PBS, collected in a 1.5 mL EP tube using a cell scraper, and then centrifuged using a centrifugal separator (1,000 rpm, 4° C., 2 minutes) to remove the supernatant, and then 100 μL each was added to RIPA-treated HepG2 cells. The HepG2 cells were incubated on ice for 40 minutes, and then mixed by shaking every 10 minutes (vertex, micro-centrifuge pre-cooled to 4° C.), and each sample was mixed 40 times to 50 times using a 1 mL syringe. Lastly, the resulting mixture was centrifuged at 13,000 rpm for 15 minutes and the obtained supernatant was used.
30 μg of protein was subjected to 8% sodium dodecyl sulfate-polyacrylamide gel electrophoresis (SDS-PAGE) to be transferred to polyvinylidene difluoride (PVDF) membranes (Millipore). The PVDF membranes were blocked with 5% skim milk and incubated with particular primary antibodies. The antibodies used in this experiment are as follows: Smad 2/3 (60, 52 kDa, 5% BSA 1:1000, #3102, Cell signaling), pSmad2/3 (cell signaling #3102), and GAPDH (37 kDa, 5% BSA 1:1000, #2118, Cell signaling). Subsequently, the PVDF membranes were washed with tris-buffered saline containing 0.1% Tween-20 (TBST), and then reacted with an HRP-conjugated anti-rabbit antibody (manufactured by Jackson ImmunoResearch Laboratories, Inc.). Afterwards, ECL detection (Amersham Pharmacia Biotech) was performed thereon, and the acquired images were analyzed using an image analyzer (GE Healthcare, ImageQuant LAS 4000).
To measure TGF-β inhibitory effects, pSmad2/3 and Smad2/3 were used as TGF-β signaling activity markers, and GAPDH was used as a reference group in electrophoresis. The TGF-β signaling activity markers which were expressed at a high concentration as TGF-β was inhibited were used.
All data are expressed as mean±S.E.M., and statistical processing was performed by an ANOVA test. The SigmaStat statistical program was used and statistical analysis was performed using a Kruskal-Wallis test and a Mann-Whitney U-test. In addition, comparison between the groups was performed using a Tukey test and a p value less than 0.05 was determined as statistically significant.
(A western blot detects proteins with antibodies after separation by electrophoresis.)

In the next experiment the test system is wound-induced SD rats. Put plainly: Wound area in full-thickness excision wound-induced animal model. Format: in vivo, Sprague-Dawley (SD) rats. The following applies: 50 μL of 100 μg/mL applied every two days. Here is the method: To confirm wound healing effects of the novel peptides Pep-WH-8, Pep-WH-9, Pep-WH-11, and Pep-WH-1, a wound-induced animal model was treated with each of the novel peptides, and then an experiment to confirm an effect of each peptide in producing collagen needed for a decrease in wound size and in a wound healing process was carried out as follows.
Sprague-Dawley (SD) rats were selected because mice have thin skins and it is difficult to uniformly induce a wound in mice. To exclude effects due to hormonal changes, male SD rats were selected and 6-week-old SD rats were purchased and acclimated for about 1 week. However, to more precisely obtain experimental results, an experiment was carried out after the 6-week-old SD rats became 11 weeks old. Since experimental animals are sensitive to olfactory responses and may attack other individual, individuals were separated from each other after wounds were formed, such as 1 rat for each cage, and observed.
The following method was used to form full-thickness excision in the prepared experimental animals. To induce anesthesia, a mixture of 10 mg/kg (body weight) of xylazine-HCl and 100 mg/kg (body weight) of ketamine HCl were intraperitoneally injected into the experimental animals or the experimental animals were administered the mixture via a respiratory anesthesia system. After the induction of anesthesia, hairs on the back of the experimental animal in a prone position were shaved cleanly, the back was disinfected with betadine, and then one circular full-thickness excision was made on a site apart from the highest portion of the back to each of left and right sides by a distance of about 1 cm, using a 16 mm punch. Separate dressing was not performed on the wound sites.
The full-thickness excision-induced animal model was divided into the following groups and a drug was applied on each group immediately after the formation of the excision and every two days. For the application method, a material was adjusted to a concentration of 1 mg/mL, and then, immediately before the experiment, the material was diluted 10 times to a concentration of 100 μg/mL. 50 μL of the material was applied dropwise on each excision.
[…] When the wounds were completely healed, the wound healing date was recorded. Generally, on about day 9, individuals with the wound sizes decreased to 5% of the initial wounds began to appear. The wound sites were photographed with a ruler, and then the acquired images were analyzed using the Image J program (NIH, USA) to calculate wound areas, and the wound areas were compared with each other.

Experiment [1] deals with TNF-α. Put plainly: ELISA of TNF-α amounts in LPS-induced THP-1 cells. Format: cell-based, human. The following applies: all the concentrations (1 μM, 5 μM, 10 μM); FIG. 2. Here is the method:
(§1) An experiment was carried out using THP-1 cells (American Type Culture Collection (ATCC), Manassas, Va., USA), which is a human acute monocytic leukemia cell line. THP-1 cells were suspended in RPMI 1640 medium to a concentration of 1×10^5 cells per well in a 96 well plate and incubated for 24 hours. At this time, the THP-1 cells were treated with phorbol 12-myristate 13-acetate (PMA) (Sigma) to differentiate into macrophages.
The ELISA test method was as follows. THP-1, which is a monocyte cell line distributed from ATCC, was sub-cultured and prepared in the P3 stage, and the cell line was distributed into wells of a well plate and treated with PMA to differentiate into macrophages. The differentiated cells were treated with LPS to induce an inflammatory reaction (to induce the production of TNF-alpha), and were treated with each of the novel peptides at each concentration (1 μM, 5 μM, and 10 μM), and the amounts of TNF-α were measured by ELISA. Relative values for a non-inflammation group and a complete inflammation group were calculated, and estrogen (E2) was set as a positive control and a non-treated cell line not treated with the novel peptides was set as a general control to perform comparative analysis. E2 is known as a steroid that inhibits the production of TNF-α in THP-1.
All data are expressed as mean±standard error of the mean (S.E.M.), and statistical processing was performed by an ANOVA test. A SigmaStat statistical program was used and statistical analysis was performed using a Kruskal-Wallis test and a Mann-Whitney U-test. In addition, comparison between the groups was performed using a Tukey test and a p value less than 0.05 was determined as statistically significant.
(ELISA stands for enzyme-linked immunosorbent assay.)

The subject of experiment [2] is TNF-α. Put plainly: RT-qPCR of TNF-α mRNA expression in LPS-treated THP-1 cells. Format: cell-based, human. The following applies: 1 μM, the lowest treatment concentration; FIG. 1. Here is the method:
as §1
The RT-qPCR test method was as follows. THP-1 cells were plated on a 6-well plate at a concentration of 2×10^6 cells/well and treated with 100 ng/mL of PMA for 24 hours to differentiate into macrophages. The media were removed and the differentiated THP-1 cells were washed twice with serum-free media (SFM), and then each novel peptide was treated with 10 ng/mL of LPS at each concentration of 1 μM, 5 μM, and 10 μM for 6 hours. RNA was extracted using RNeasy® Plus Mini Kit (Qiagen), and the extracted RNA was quantified and then cDNA synthesis was performed using a Reverse Transcription System (Promega). […]
All data are expressed as mean±standard error of the mean (S.E.M.), and statistical processing was performed by an ANOVA test. […] In addition, comparison between the groups was performed using a Tukey test and a p value less than 0.05 was determined as statistically significant.
On the technique in general: Real-time PCR tracks product formation cycle by cycle.

The mark [3] stands for this setting: day 3 after full-thickness excision.
The mark [4] stands for this setting: day 1 after full-thickness excision.

As to ALSSRLRF (Pep-WH-3 peptide), in the experiment with TGF-β, the “TGF-β inhibitory activity compared to positive control 10 μM SB431542” value is given as “higher TGF-β inhibitory activity”.
On the same count and under the same terms, the result for ALSTRLRA (Pep-WH-4 peptide) reads “higher TGF-β inhibitory activity”; that for ALSTRLRF (Pep-WH-6 peptide), “higher TGF-β inhibitory activity”; that for ALSTRLRG (Pep-WH-5 peptide), “higher TGF-β inhibitory activity”.
With ALTSKLRF (Pep-WH-12 peptide), the “wound size compared to control” value in the experiment with wound-induced SD rats (setting [3]) is given as “smaller wound size”. The “TGF-β inhibitory activity compared to positive control 10 μM SB431542” value in the experiment on TGF-β was “higher TGF-β inhibitory activity”. In addition, the “inflammation-inducing activity (TNF-α amount) compared to E2 positive control” value in the experiment on TNF-α [1] is recorded as “lower inflammation-inducing activity”.
As for ALTSRVRA (Pep-WH-7 peptide), in the experiment on TGF-β, the “TGF-β inhibitory activity compared to positive control 10 μM SB431542” value was “higher TGF-β inhibitory activity”.
As for ALTSRVRF (Pep-WH-9 peptide), in the experiment with wound-induced SD rats (setting [4]), the “wound size compared to control” value is listed as “smaller wound size”. In addition, the “inflammation-inducing activity (TNF-α amount) compared to E2 positive control” value in the experiment with TNF-α [1] was “lower inflammation-inducing activity”.
For ALTSRVRG (Pep-WH-8 peptide), the “wound size compared to control” value in the experiment with wound-induced SD rats (setting [3]) is “smaller wound size”. In addition, the “inflammation-inducing activity (TNF-α amount) compared to E2 positive control” value in the experiment with TNF-α [1] is reported as “lower inflammation-inducing activity”.
Regarding “Pep-WH-11: novel peptide prepared by the same method as Pep-WH-1; sequence not printed in Table 2 (ALSTRLRG; Pep-WH-11 peptide)”, the “wound size compared to control” value in the experiment on wound-induced SD rats (setting [4]) is “smaller wound size”. Besides, the “anti-inflammatory activity (TNF-α mRNA inhibition), comparison among peptides” value with TNF-α [2] is “highest anti-inflammatory activity”. Further, in the experiment with TNF-α [1], the “inflammation-inducing activity (TNF-α amount) compared to E2 positive control” value is on record as “lower inflammation-inducing activity”.
